Measurements taken from patent US20230112418A1, “COMPOUND AND RADIOACTIVE LABELING COMPOUND” (NIHON MEDI-PHYSICS CO., LTD., priority 2020, published 2023).

Assays:
[1] = test system: LNCaP cells (PSMA positive); assay: Evaluation of binding using cultured cells (LNCaP); format: cell-based, human; conditions: FIG. 4
Protocol: LNCaP cells (PSMA positive, human prostate cancer) and PC-3 cells (PSMA negative, human prostate cancer) were used. These cells were purchased from American Type Culture Collection and DS Biomedical, respectively. The LNCaP cells and the PC-3 cells were each cultured in RPMI 1640 containing antibiotics (penicillin and streptomycin) and 10% inactivated fetal bovine serum, manufactured by Nacalai Tesque, Inc. at 37° C. under 5% CO2.
The LNCaP cells and the PC-3 cells were each seeded in a 12 well plate at 4.0×10^5 cells/well, and allowed to stand at 37° C. under 5% CO2 for 48 hours.
The culture medium was removed, and an assay medium (0.5% FBS-containing RPMI 1640 medium) solution (1 mL) containing [^111In]In-PSMA-DA1 or [^111In]In-PSMA-DB (37 kBq) was added to the residue. Thereafter, the plate was allowed to stand at 37° C. under 5% CO2 for one hour. […]
The radioactivity of each of the assay medium and the cell lysate was measured with a gamma counter. Separately from this, the total protein concentration in the cell lysate was calculated using a BCA Protein Assay Kit manufactured by Thermo Fisher Scientific. A value (% ID/mg protein) obtained by dividing the percentage (% ID) of the amount of radioactivity of a sample to the amount of added radioactivity by the total protein mass was calculated for each sample.
Data was expressed as mean±standard deviation. […]

[2] = test system: LNCaP tumor transplanted mice; assay: In vivo radioactivity distribution using LNCaP tumor transplanted mice
Protocol: Animal experiments were performed in accordance with the guidelines of Kyoto University Animal Experiment Committee. Male CB17/IcrJcl-Prkdc^scid mice were purchased from CLEA Japan, Inc. The animals were raised under 12 h/12 h day/night cycle conditions and freely fed with food and water. LNCaP cells (1.0×10^7 cells/mouse) or PC-3 cells (1.0×10^7 cells/mouse) were suspended in a mixed liquid (1:1,150 μL) of PBS and Matrigel manufactured by Corning Life Sciences Inc., and the suspension was subcutaneously transplanted to the right shoulder of each of the mice under isoflurane anesthesia. Thereafter, the mice were raised for 40 to 60 days.
A saline solution (185 kBq, 100 μL) of [^111In]In-PSMA-DA1 or [^111In]In-PSMA-DB was injected into each of LNCaP or PC-3 tumor transplanted mice via the tail vein thereof (n=3 in each group). The mice were euthanized 1, 4, 24, 48, 96, and 192 hours after the injection. Thereafter, blood and organs were collected, and the mass and radioactivity of each of the organs were measured.
A result thereof is indicated as a value (% ID/g) obtained by dividing the percentage (% ID) of the amount of radioactivity with respect to the amount of injected radioactivity (injected dose) by the mass of blood or the mass of an organ (g). […]

O=C([O-])CN1CCN(C(CCC(=O)NCCCC[C@H](NC(=O)N[C@@H](CCC(=O)O)C(=O)O)C(=O)O)C(=O)[O-])CCN(CC(=O)[O-])CCN(C(CCC(=O)Nc2ccccc2)C(=O)[O-])CC1.[111In+3] (stereo partly shown) [[^111In]In-PSMA-DB]
Effect of excess 2-PMPA on binding (in words) ([1]; 2-PMPA 100 μM): significantly reduced | Binding property LNCaP vs PC-3 cells (in words) [1]: higher binding property to the LNCaP cells than the PC-3 cells | Accumulation: Blood ([2]; 1 hour after injection): 3.33 ± 0.21 % ID/g | Accumulation: Brain ([2]; 1 hour after injection): 0.06 ± 0.01 % ID/g | Accumulation: Heart ([2]; 1 hour after injection): 0.87 ± 0.33 % ID/g | Accumulation: Intestinal ([2]; 1 hour after injection): 0.59 ± 0.14 % ID/g | Accumulation: Kidney ([2]; 1 hour after injection): 59.2 ± 35.2 % ID/g | Accumulation: LNCaP tumor ([2]; 1 hour after injection): 3.36 ± 0.04 % ID/g | Accumulation: Liver ([2]; 1 hour after injection): 0.91 ± 0.20 % ID/g | Accumulation: Lung ([2]; 1 hour after injection): 2.24 ± 0.60 % ID/g | Accumulation: Muscle ([2]; 1 hour after injection): 0.23 ± 0.68 % ID/g | Accumulation: Pancreas ([2]; 1 hour after injection): 0.74 ± 0.25 % ID/g | Accumulation: Spleen ([2]; 1 hour after injection): 3.05 ± 0.53 % ID/g | Accumulation: Stomach ([2]; 1 hour after injection): 0.10 ± 0.04 % ID | Accumulation: Blood ([2]; 4 hours after injection): 2.00 ± 0.29 % ID/g | Accumulation: Brain ([2]; 4 hours after injection): 0.05 ± 0.00 % ID/g | Accumulation: Heart ([2]; 4 hours after injection): 0.60 ± 0.08 % ID/g | Accumulation: Intestinal ([2]; 4 hours after injection): 1.05 ± 0.10 % ID/g | Accumulation: Kidney ([2]; 4 hours after injection): 22.7 ± 9.69 % ID/g | Accumulation: LNCaP tumor ([2]; 4 hours after injection): 2.50 ± 0.50 % ID/g | Accumulation: Liver ([2]; 4 hours after injection): 0.95 ± 0.05 % ID/g | Accumulation: Lung ([2]; 4 hours after injection): 1.56 ± 0.07 % ID/g | Accumulation: Muscle ([2]; 4 hours after injection): 0.21 ± 0.04 % ID/g | Accumulation: Pancreas ([2]; 4 hours after injection): 0.54 ± 0.22 % ID/g | Accumulation: Spleen ([2]; 4 hours after injection): 2.39 ± 0.05 % ID/g | Accumulation: Stomach ([2]; 4 hours after injection): 0.13 ± 0.03 % ID | Accumulation: Blood ([2]; 24 hours after injection): 0.68 ± 0.17 % ID/g | Accumulation: Brain ([2]; 24 hours after injection): 0.07 ± 0.02 % ID/g | Accumulation: Heart ([2]; 24 hours after injection): 0.43 ± 0.07 % ID/g | Accumulation: Intestinal ([2]; 24 hours after injection): 1.00 ± 0.44 % ID/g | Accumulation: Kidney ([2]; 24 hours after injection): 13.2 ± 2.41 % ID/g | Accumulation: LNCaP tumor ([2]; 24 hours after injection): 2.09 ± 0.39 % ID/g | Accumulation: Liver ([2]; 24 hours after injection): 1.55 ± 0.32 % ID/g | Accumulation: Lung ([2]; 24 hours after injection): 0.97 ± 0.15 % ID/g | Accumulation: Muscle ([2]; 24 hours after injection): 0.21 ± 0.07 % ID/g | Accumulation: Pancreas ([2]; 24 hours after injection): 0.71 ± 0.10 % ID/g | Accumulation: Spleen ([2]; 24 hours after injection): 3.37 ± 0.75 % ID/g | Accumulation: Stomach ([2]; 24 hours after injection): 0.16 ± 0.05 % ID | Accumulation: Blood ([2]; 48 hours after injection): 0.27 ± 0.16 % ID/g | Accumulation: Brain ([2]; 48 hours after injection): 0.03 ± 0.02 % ID/g | Accumulation: Heart ([2]; 48 hours after injection): 0.32 ± 0.05 % ID/g | Accumulation: Intestinal ([2]; 48 hours after injection): 0.79 ± 0.21 % ID/g | Accumulation: Kidney ([2]; 48 hours after injection): 8.58 ± 2.02 % ID/g | Accumulation: LNCaP tumor ([2]; 48 hours after injection): 1.69 ± 0.77 % ID/g | Accumulation: Liver ([2]; 48 hours after injection): 1.28 ± 0.16 % ID/g | Accumulation: Lung ([2]; 48 hours after injection): 0.66 ± 0.24 % ID/g | Accumulation: Muscle ([2]; 48 hours after injection): 0.15 ± 0.06 % ID/g | Accumulation: Pancreas ([2]; 48 hours after injection): 0.71 ± 0.17 % ID/g | Accumulation: Spleen ([2]; 48 hours after injection): 2.63 ± 0.83 % ID/g | Accumulation: Stomach ([2]; 48 hours after injection): 0.07 ± 0.02 % ID | Accumulation: Blood ([2]; 96 hours after injection): 0.14 ± 0.04 % ID/g | Accumulation: Brain ([2]; 96 hours after injection): 0.09 ± 0.05 % ID/g | Accumulation: Heart ([2]; 96 hours after injection): 0.40 ± 0.12 % ID/g | Accumulation: Intestinal ([2]; 96 hours after injection): 0.41 ± 0.17 % ID/g | Accumulation: Kidney ([2]; 96 hours after injection): 7.04 ± 3.28 % ID/g | Accumulation: LNCaP tumor ([2]; 96 hours after injection): 1.05 ± 0.03 % ID/g | Accumulation: Liver ([2]; 96 hours after injection): 1.59 ± 0.57 % ID/g | Accumulation: Lung ([2]; 96 hours after injection): 0.70 ± 0.15 % ID/g | Accumulation: Muscle ([2]; 96 hours after injection): 0.14 ± 0.08 % ID/g | Accumulation: Pancreas ([2]; 96 hours after injection): 0.85 ± 0.39 % ID/g | Accumulation: Spleen ([2]; 96 hours after injection): 2.82 ± 0.87 % ID/g | Accumulation: Stomach ([2]; 96 hours after injection): 0.10 ± 0.03 % ID | Accumulation: Blood ([2]; 192 hours after injection): 0.07 ± 0.03 % ID/g | Accumulation: Brain ([2]; 192 hours after injection): 0.04 ± 0.00 % ID/g | Accumulation: Heart ([2]; 192 hours after injection): 0.33 ± 0.01 % ID/g | Accumulation: Intestinal ([2]; 192 hours after injection): 0.13 ± 0.02 % ID/g | Accumulation: Kidney ([2]; 192 hours after injection): 3.47 ± 1.24 % ID/g | Accumulation: LNCaP tumor ([2]; 192 hours after injection): 0.83 ± 0.11 % ID/g | Accumulation: Liver ([2]; 192 hours after injection): 1.20 ± 0.09 % ID/g | Accumulation: Lung ([2]; 192 hours after injection): 0.67 ± 0.05 % ID/g | Accumulation: Muscle ([2]; 192 hours after injection): 0.14 ± 0.09 % ID/g | Accumulation: Pancreas ([2]; 192 hours after injection): 1.04 ± 0.18 % ID/g | Accumulation: Spleen ([2]; 192 hours after injection): 3.46 ± 0.32 % ID/g | Accumulation: Stomach ([2]; 192 hours after injection): 0.05 ± 0.00 % ID | Tumor accumulation compared with [^111In]In-PSMA-DA1 (in words) ([2]; LNCaP tumor): tumor accumulation lower than that of [^111In]In-PSMA-DA1 | Tumor/kidney ratio compared with [^111In]In-PSMA-DA1 (in words) ([2]; at any time point): lower tumor/kidney ratio
